Patent publication US20140193827A1 (TEVA PHARMACEUTICAL INDUSTRIES, LTD., priority 2013, published 2014)

Tested on: GA-primed murine splenocytes
Experiment: Tolerance method for assessing process variability

## glatiramer acetate [GA]
Probe ILMN_2731237
  AVG expression D8ERTD82E: 8.974
Probe ILMN_2731760
  AVG expression MYO1F: 8.593
Probe ILMN_2733185
  AVG expression CDC42EP3: 8.258
Probe ILMN_2733733
  AVG expression TLR2: 8.191
Probe ILMN_2733778
  AVG expression IL4I1: 13.39
Probe ILMN_2734212
  AVG expression CD1D1: 8.262
Probe ILMN_2734391
  AVG expression RAMP1: 7.212
Probe ILMN_2735615
  AVG expression ISG20: 8.139
Probe ILMN_2738433
  AVG expression IL4RA: 6.897
Probe ILMN_2740407
  AVG expression PDE2A: 6.704
Probe ILMN_2740628
  AVG expression NDRG3: 7.26
Probe ILMN_2741201
  AVG expression IL17F: 9.282
Probe ILMN_2742042
  AVG expression NUPR1: 7.513
Probe ILMN_2742068
  AVG expression CSRP3: 7.26
Probe ILMN_2742861
  AVG expression SERPINA3F: 9.63
Probe ILMN_2743902
  AVG expression MATK: 6.954
Probe ILMN_2744890
  AVG expression GADD45G: 10.65
Probe ILMN_2749063
  AVG expression DOCK10: 7.866
Probe ILMN_2749412
  AVG expression CSF2: 7.94
Probe ILMN_2751037
  AVG expression SPATA13: 10.49
Probe ILMN_2751111
  AVG expression 4931429111RIK: 6.944
Probe ILMN_2751603
  AVG expression PHXR4: 8.973
Probe ILMN_2752436
  AVG expression 2210010N04RIK: 7.364
Probe ILMN_2754158
  AVG expression TGTP: 7.894
Probe ILMN_2754364
  AVG expression LTF: 8.257
Probe ILMN_2754698
  AVG expression CD84: 9.661
Probe ILMN_2756046
  AVG expression FFAR2: 9.337
Probe ILMN_2756438
  AVG expression D7BWG0611E: 6.424
Probe ILMN_2757569
  AVG expression ENO3: 8.71
Probe ILMN_2757807
  AVG expression BC031353: 9.011
Probe ILMN_2758029
  AVG expression PRTN3: 6.472
Probe ILMN_2758720
  AVG expression SYPL: 11.58
Probe ILMN_2758878
  AVG expression TMEM66: 8.06
Probe ILMN_2761109
  AVG expression CLIC4: 11.63
Probe ILMN_2761720
  AVG expression LOC100041103: 7.612
Probe ILMN_2762983
  AVG expression TBX21: 8.48
Probe ILMN_2763739
  AVG expression BC032203: 10.17
Probe ILMN_2765759
  AVG expression ASB2: 8.795
Probe ILMN_2766604
  AVG expression CAMP: 8.176
Probe ILMN_2766875
  AVG expression OCIAD2: 6.716
Probe ILMN_2767615
  AVG expression ATP1B1: 7.592
Probe ILMN_2767918
  AVG expression IFI30: 10.97
Probe ILMN_2769772
  AVG expression PIK3IP1: 7.746
Probe ILMN_2769918
  AVG expression TIMP1: 6.577
Probe ILMN_2770066
  AVG expression LOC100044439: 9.229
Probe ILMN_2772264
  AVG expression IGH-VJ558: 10.58
Probe ILMN_2773900
  AVG expression GLIPR2: 10.63
Probe ILMN_2774160
  AVG expression HSD11B1: 8.176
Probe ILMN_2774410
  AVG expression STFA1: 8.3801
Probe ILMN_2774537
  AVG expression HIST1H1C: 8.165
Probe ILMN_2777019
  AVG expression SPO11: 6.908
Probe ILMN_2777696
  AVG expression GCAT: 8.955
Probe ILMN_2777769
  AVG expression H2-DMA: 12.53
Probe ILMN_2780247
  AVG expression LTA: 8.582
Probe ILMN_2789650
  AVG expression CSRP3: 7.602
Probe ILMN_2789900
  AVG expression CD177: 6.628
Probe ILMN_2791459
  AVG expression IFNG: 9.711
Probe ILMN_2795178
  AVG expression RFTN2: 7.218
Probe ILMN_2799452
  AVG expression IL12RB1: 7.405
Probe ILMN_2803674
  AVG expression S100A9: 11.05
Probe ILMN_2804559
  AVG expression TMEM108: 7.473
Probe ILMN_2806549
  AVG expression PRM1: 6.894
Probe ILMN_2807084
  AVG expression ACOT7: 9.352
Probe ILMN_2807335
  AVG expression 3110001A13RIK: 8.958
Probe ILMN_2810882
  AVG expression PPIC: 8.651
Probe ILMN_2816180
  AVG expression LBH: 11.09
Probe ILMN_2818246
  AVG expression CPNE4: 7.052
Probe ILMN_2818964
  AVG expression DUSP10: 8.287
Probe ILMN_2823778
  AVG expression SC4MOL: 9.801
Probe ILMN_2828768
  AVG expression USP28: 7.665
Probe ILMN_2833243
  AVG expression C330023M02RIK: 9.988
Probe ILMN_2833248
  AVG expression C330023M02RIK: 8.672
Probe ILMN_2834573
  AVG expression BRWD1: 7.683
Probe ILMN_2837493
  AVG expression EG634650: 6.736
Probe ILMN_2844996
  AVG expression ACTN1: 9.845
Probe ILMN_2845080
  AVG expression PSAP: 11.88
Probe ILMN_2845272
  AVG expression KLHDC2: 12.06
Probe ILMN_2846865
  AVG expression ACTB: 9.645
Probe ILMN_2852034
  AVG expression HIF1A: 7.906
Probe ILMN_2852672
  AVG expression TSPAN32: 9.543
Probe ILMN_2855315
  AVG expression HIST1H1C: 8.506
Probe ILMN_2856926
  AVG expression GPR114: 9.59
Probe ILMN_2860645
  AVG expression GBP6: 9.559
Probe ILMN_2860649
  AVG expression GBP6: 8.264
Probe ILMN_2862379
  AVG expression RHOD: 6.304
Probe ILMN_2863390
  AVG expression FCER1A: 7.15
Probe ILMN_2864309
  AVG expression OTTMUSG00000000971: 7.999
Probe ILMN_2865016
  AVG expression CD83: 12.24
Probe ILMN_2873750
  AVG expression GLDC: 6.771
Probe ILMN_2878071
  AVG expression LYZ: 10.5
Probe ILMN_2881296
  AVG expression TMEM66: 9.558
Probe ILMN_2883267
  AVG expression LRRK2: 9.942
Probe ILMN_2883326
  AVG expression PIRA3: 7.604
Probe ILMN_2888191
  AVG expression CCR5: 7.88
Probe ILMN_2890515
  AVG expression NSG2: 6.466
Probe ILMN_2897891
  AVG expression RGS1: 8.707
Probe ILMN_2900462
  AVG expression ATP2A3: 10.34
Probe ILMN_2903169
  AVG expression GM484: 7.045
Probe ILMN_2903945
  AVG expression GADD45G: 12.68
Probe ILMN_2906430
  AVG expression ICOS: 9.445
Probe ILMN_2917497
  AVG expression FCGRT: 7.496
Probe ILMN_2919259
  AVG expression SCD2: 7.493
Probe ILMN_2919263
  AVG expression SLC25A1: 9.787
Probe ILMN_2919411
  AVG expression OSM: 9.631
Probe ILMN_2923865
  AVG expression CASP6: 9.522
Probe ILMN_2925094
  AVG expression MPO: 6.333
Probe ILMN_2928599
  AVG expression SIGLECH: 6.936
Probe ILMN_2930552
  AVG expression 9130211I03RIK: 7.36
Probe ILMN_2931334
  AVG expression IL4: 8.425
Probe ILMN_2932359
  AVG expression TPI1: 11.19
Probe ILMN_2939681
  AVG expression LYZS: 6.97
Probe ILMN_2940446
  AVG expression DGKA: 10.5
Probe ILMN_2944601
  AVG expression 4933439C20RIK: 9.853
Probe ILMN_2944824
  AVG expression HP: 8.175
Probe ILMN_2945940
  AVG expression RAgenericEF4: 7.203
Probe ILMN_2947234
  AVG expression CBX7: 7.729
Probe ILMN_2947526
  AVG expression ECM1: 10.05
Probe ILMN_2957862
  AVG expression NOC4L: 9.678
Probe ILMN_2960108
  AVG expression CYP27A1: 6.166
Probe ILMN_2960114
  AVG expression CYP27A1: 6.441
Probe ILMN_2964185
  AVG expression H2-M2: 6.649
Probe ILMN_2964986
  AVG expression CREM: 7.2
Probe ILMN_2967266
  AVG expression FXYD5: 11.61
Probe ILMN_2971142
  AVG expression AMPD1: 6.076
Probe ILMN_2971171
  AVG expression FCRLA: 10.49
Probe ILMN_2976440
  AVG expression BLK: 10.05
Probe ILMN_2976441
  AVG expression BLK: 10.82
Probe ILMN_2977791
  AVG expression MAN2A2: 6.779
Probe ILMN_2979248
  AVG expression TMED8: 8.811
Probe ILMN_2983525
  AVG expression D12ERTD553E: 9.137
Probe ILMN_2984744
  AVG expression EMP3: 11.52
Probe ILMN_2987709
  AVG expression SLC15A3: 10.2
Probe ILMN_2988931
  AVG expression STFA1: 7.963
Probe ILMN_2993314
  AVG expression CLEC4N: 7.76
Probe ILMN_2996904
  AVG expression OBFC2A: 7.798
Probe ILMN_3002095
  AVG expression IL27RA: 10.52
Probe ILMN_3004864
  AVG expression UNC84B: 10.87
Probe ILMN_3005441
  AVG expression PPA1: 12.45
Probe ILMN_3006123
  AVG expression ASNS: 7.885
Probe ILMN_3006767
  AVG expression MLKL: 8.575
Probe ILMN_3007862
  AVG expression ABHD14B: 7.744
Probe ILMN_3014674
  AVG expression FAM169B: 10.41
Probe ILMN_3018445
  AVG expression CYP4F18: 6.343
Probe ILMN_3034877
  AVG expression KIF1B: 7.209
Probe ILMN_3047389
  AVG expression GBP2: 7.888
Probe ILMN_3053593
  AVG expression GLIPR2: 11.06
Probe ILMN_3077377
  AVG expression WARS: 7.701
Probe ILMN_3079919
  AVG expression AHNAK: 7.509
Probe ILMN_3090207
  AVG expression CYP4F18: 7.952
Probe ILMN_3094853
  AVG expression PKIB: 9.029
Probe ILMN_3103746
  AVG expression TNFRSF9: 8.744
Probe ILMN_3103896
  AVG expression TIMP1: 6.734
Probe ILMN_3105936
  AVG expression CETN4: 7.334
Probe ILMN_3112873
  AVG expression TXNIP: 10.81
Probe ILMN_3115917
  AVG expression HSD11B1: 8.516
Probe ILMN_3117876
  AVG expression CHI3L3: 7.418
Probe ILMN_3121891
  AVG expression LMNA: 8.355
Probe ILMN_3122961
  AVG expression GBP2: 13.72
Probe ILMN_3128992
  AVG expression CD27: 10.96
Probe ILMN_3130403
  AVG expression BC004728: 9.315
Probe ILMN_3131478
  AVG expression BCAT1: 9.235
Probe ILMN_3131679
  AVG expression USP18: 9.931
Probe ILMN_3132898
  AVG expression YPEL3: 12.77
Probe ILMN_3135781
  AVG expression ANXA3: 7.965
Probe ILMN_3136744
  AVG expression SESN1: 9.838
Probe ILMN_3137287
  AVG expression LIF: 6.404
Probe ILMN_3137291
  AVG expression LIF: 6.545
Probe ILMN_3139253
  AVG expression BTBD11: 6.574
Probe ILMN_3141048
  AVG expression SEPP1: 6.844
Probe ILMN_3142803
  AVG expression CXCL10: 8.707
Probe ILMN_3149776
  AVG expression B3GNT8: 7.035
Probe ILMN_3153982
  AVG expression NACC2: 7.11
Probe ILMN_3156343
  AVG expression WARS: 8.996
Probe ILMN_3157081
  AVG expression SYTL3: 7.084
Probe ILMN_3162239
  AVG expression PRR7: 7.209
